Columns and labels:
α7-nAChRs [1] = target: T1, α7-nAChRs (Mus musculus, UniProt P49582); settings: CD1 mice, i.v.; frontal cortex, thalamus, striatum, hippocampus; post-injection
α7-nAChRs [2] = target: T1, α7-nAChRs; assay: blocking dissection study with PHA543613 in mice; settings: PHA543613 0.5 mg/kg s.c., 15 min before tracer; 90 min after tracer

T1 sequence (P49582 23-502): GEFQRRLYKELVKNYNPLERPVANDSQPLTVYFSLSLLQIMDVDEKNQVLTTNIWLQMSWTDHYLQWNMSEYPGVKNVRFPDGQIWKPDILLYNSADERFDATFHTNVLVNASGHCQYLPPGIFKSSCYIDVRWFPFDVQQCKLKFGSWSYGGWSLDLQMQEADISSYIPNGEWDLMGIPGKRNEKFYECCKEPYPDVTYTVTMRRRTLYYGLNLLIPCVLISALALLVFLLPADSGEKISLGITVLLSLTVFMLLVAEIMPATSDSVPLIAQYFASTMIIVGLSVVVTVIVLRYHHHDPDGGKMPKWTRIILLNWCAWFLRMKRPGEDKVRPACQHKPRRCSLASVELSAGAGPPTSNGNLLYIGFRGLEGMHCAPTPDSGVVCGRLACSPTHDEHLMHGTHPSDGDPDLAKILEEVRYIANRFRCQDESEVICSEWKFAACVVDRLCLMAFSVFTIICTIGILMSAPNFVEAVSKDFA

SMILES | time of peak radioactivity accumulation (α7-nAChRs [1]) [min] | blockade of [^11C]rac-1 binding in the cerebellum (α7-nAChRs [2]) | inhibition of [^11C]rac-1 binding in hippocampus and frontal cortex (α7-nAChRs [2])
[11CH3]N1CC2CN(c3ccc(-c4ccc5[nH]ccc5c4)nc3)CC21 (racemic) [[^11C]rac-1, 5-(5-(6-[^11C]methyl-3,6-diazabicyclo[3.2.0]heptan-3-yl)pyridin-2-yl)-1H-indole] | 30 |  | 
O=C(N[C@H]1CN2CCC1CC2)c1cc2ccoc2cn1 [PHA543613] |  | minimal | significantly inhibited

Source: article PMC3527104 (Bioorganic & medicinal chemistry, 2012)
